Measured values published in publication PMC6817585, “Simultaneous Determination of Five Alkaloids by HPLC-MS/MS Combined With Micro-SPE in Rat Plasma and Its Application to Pharmacokinetics After Oral Administration of Lotus Leaf Extract” (Frontiers in Pharmacology, 2019).
Like-named read-outs stand apart in the source and are kept apart here. Each block holds one compound with its values, some of them ahead of it.

How the values were obtained:
[1] = Stability of analytes in rat plasma QC samples (auto-sampler, freeze-thaw, short-time, long-term); format: in vitro ADME
Experimental: (§1) The stabilities (including auto-sampler, freeze–thaw cycles, and short-time and long-term stability) of all analytes were obtained by testing QC samples of four concentrations. Moreover, the stabilities for stock and working solution were assessed with mixed standard substance (100 ng·ml^−1) and the QC sample solutions of four concentration levels, respectively. These solutions were achieved by diluting stock solutions kept at 4°C for 2 weeks. For IS, the evaluated procedures of two stabilities were same as the five alkaloids.

[2] = Stability of stock and working solutions; format: physicochemical; details: working solution, n = 6
Experimental: as §1

[3] = Pharmacokinetics of five alkaloids in rat plasma after oral administration of lotus leaf extract; format: in vivo, Male Sprague-Dawley rats
Experimental: All analyses were performed on Agilent 1200 HPLC system (Agilent Corporation, USA) and API 3200 triple-quadrupole mass spectrometer (Concord, Ontario, Canada) in multiple-reaction monitoring (MRM) with positive ionization mode. Acetonitrile (A) and formic acid aqueous solution (B) (0.1%, v/v) is used to separate the analytes on Eclipse plus C18 column (4.6 mm × 100 mm, 1.8 µm) with a guard C18 column (2.1 mm × 12.5 mm, 5 µm). The gradient of elution is as follows: 5%–60% A at 0 to 4 min, 60%–70% A at 4 to 5 min, 70%–93% A at 5 to 7 min, 93%–94% A at 7 to 11 min, 94%–5% A at 11 to 12 min, and 5%–5% A at 12 to 17 min. The flow rate and injection volume are 0.3 ml·min^-1 and 5 µl, respectively. The main parameters of ion source including the ion spray voltage, the curtain gas, and temperature are set at 5000 V, 35 psi, and 450°C, respectively.
The real plasma sample (100 µl) and IS solution (10 µl) were vortex-mixed for 1 min. The sample was carried out with the SPE column (Cleanert PEP-2, 40–60 µm, 60 Å, 10 mg/1 ml; Phenomenex, Torrance, CA, USA). First, SPE columns were activated by 50% methanol in water (1 ml) and 0.1% formic acid in water (1 ml) and were used to activate the SPE column in sequence. Second, columns were washed with 200 µl methanol (20%, v/v) and eluted with acetonitrile (400 µl) after the plasma samples were added. Finally, the eluent was centrifuged for 10 min with 14,000 rpm. Then final solutions were injected into the HPLC-MS/MS and analyzed.
The pharmacokinetic study was conducted in accordance with the Guidelines for the Care and Use of Laboratory Animals by the US National Institutes of Health and approved by the Animal Ethics Committee of Tianjin University of Traditional Chinese Medicine (permit number: TCM-LAEC2019022, Tianjin, China),. Male Sprague-Dawley rats (240–260 g) were fed in the animal laboratory of the Tianjin University of Traditional Chinese Medicine under the standard conditions. These rats were allowed free to get standard laboratory food and water and conformed for 1 week until 12 h before experiment. These rats (n = 10) were fasted, although they were still given water for 12 h, before the oral administration of lotus leaf extract. […] The plasma samples were centrifuged in 10 min at 7000 rpm and kept at −20°C until analyzed.
All of the pharmacokinetic parameters were calculated by one compartment model with DAS 1.0 software (Medical College of Wannan). The maximum drug concentration (Cmax) and the time to reach Cmax (Tmax) were acquired from observed concentration–time profile for oral administration in plasma. All data were shown as mean ± SD.

[4] = rat plasma QC, autosampler 24 h, LLOQ, n = 6
[5] = rat plasma QC, freeze thaw cycles, LLOQ, n = 6
[6] = rat plasma QC, room temperature 24 h, LLOQ, n = 6
[7] = rat plasma QC, −80°C 1 month, LLOQ, n = 6
[8] = concentration LLOQ, from stock kept at 4°C for 2 weeks
[9] = male, Sprague-Dawley, rat, in vivo, po, 2.4 g/kg, rat plasma, oral lotus leaf extract 2.4 g·kg^−1, n = 10, mean ± SD, read-out: MRT(0–tn)
[10] = male, Sprague-Dawley, rat, in vivo, po, 2.4 g/kg, rat plasma, oral lotus leaf extract 2.4 g·kg^−1, n = 10, mean ± SD, read-out: MRT(0–∞)
[11] = male, Sprague-Dawley, rat, in vivo, po, 2.4 g/kg, rat plasma, oral lotus leaf extract 2.4 g·kg^−1, n = 10, mean ± SD, read-out: Tmax
[12] = male, Sprague-Dawley, rat, in vivo, po, 2.4 g/kg, rat plasma, oral lotus leaf extract 2.4 g·kg^−1, n = 10, one compartment model, mean ± SD, read-out: T1/2 (converted)
[13] = rat, oral lotus leaf extract 2.4 g·kg^−1
[14] = rat plasma, oral lotus leaf extract 2.4 g·kg^−1, n = 10, mean ± SD
[15] = male, Sprague-Dawley, rat, in vivo, po, 2.4 g/kg

Compound: O=C1c2ccccc2-c2c3c(cc4ccnc1c24)OCO3 [Liriodenine, liriodenine]
Remain, autosampler for 24 h ([1]; rat plasma QC, autosampler 24 h, 1 ng/ml, n = 6): 86.0%
Remain, autosampler for 24 h ([1]; rat plasma QC, autosampler 24 h, 40 ng/ml, n = 6): 105%
Remain, autosampler for 24 h ([1]; rat plasma QC, autosampler 24 h, 200 ng/ml, n = 6): 96.8%
Remain, autosampler for 24 h [1, 4]: 95.7%
Remain, freeze thaw cycles ([1]; rat plasma QC, freeze thaw cycles, 1 ng/ml, n = 6): 86.9%
Remain, freeze thaw cycles ([1]; rat plasma QC, freeze thaw cycles, 40 ng/ml, n = 6): 92.7%
Remain, freeze thaw cycles ([1]; rat plasma QC, freeze thaw cycles, 200 ng/ml, n = 6): 90.5%
Remain, freeze thaw cycles [1, 5]: 91.7%
Remain, room temperature for 24 h ([1]; rat plasma QC, room temperature 24 h, 1 ng/ml, n = 6): 87.9%
Remain, room temperature for 24 h ([1]; rat plasma QC, room temperature 24 h, 40 ng/ml, n = 6): 96.9%
Remain, room temperature for 24 h ([1]; rat plasma QC, room temperature 24 h, 200 ng/ml, n = 6): 102%
Remain, room temperature for 24 h [1, 6]: 92.9%
Remain, −80°C for 1 month ([1]; rat plasma QC, −80°C 1 month, 1 ng/ml, n = 6): 107%
Remain, −80°C for 1 month ([1]; rat plasma QC, −80°C 1 month, 40 ng/ml, n = 6): 105%
Remain, −80°C for 1 month ([1]; rat plasma QC, −80°C 1 month, 200 ng/ml, n = 6): 104%
Remain, −80°C for 1 month [1, 7]: 98.9%
Remain, working solution ([2]; 1 ng/ml): 96.9%
Remain, working solution ([2]; 40 ng/ml): 91.7%
Remain, working solution ([2]; 200 ng/ml): 112%
Remain, working solution [2, 8]: 105%
AUC ([3]; male, Sprague-Dawley, rat, in vivo, po, 2.4 g/kg, rat plasma, oral lotus leaf extract 2.4 g·kg^−1, n = 10, mean ± SD, read-out: AUC(0–tn)): 415 ± 200 ng·h/mL
AUC(0-inf) ([3]; male, Sprague-Dawley, rat, in vivo, po, 2.4 g/kg, rat plasma, oral lotus leaf extract 2.4 g·kg^−1, n = 10, mean ± SD, read-out: AUC(0–∞)): 429 ± 199 ng·h/mL
Cmax ([3]; male, Sprague-Dawley, rat, in vivo, po, 2.4 g/kg, rat plasma, oral lotus leaf extract 2.4 g·kg^−1, n = 10, mean ± SD, read-out: Cmax): 54.7 ± 31.8 ng/mL
MRT [3, 9]: 7.11 ± 1.21 h
MRT inf [3, 10]: 8.17 ± 1.86 h
Tmax [3, 11]: 5.7 ± 2.83 h
half-life [3, 12]: 3.77 ± 1.15 h
Absorption after orally administrating the lotus leaf extract (in words) [3, 13]: slow absorption

Compound: COc1cc2c3c(c1OC)-c1ccccc1C[C@H]3N(C)CC2 [Nunciferine, nunciferine]
Remain, autosampler for 24 h ([1]; rat plasma QC, autosampler 24 h, 2 ng/ml, n = 6): 89.7%
Remain, autosampler for 24 h ([1]; rat plasma QC, autosampler 24 h, 100 ng/ml, n = 6): 98.4%
Remain, autosampler for 24 h ([1]; rat plasma QC, autosampler 24 h, 500 ng/ml, n = 6): 85.4%
Remain, autosampler for 24 h [1, 4]: 87.5%
Remain, freeze thaw cycles ([1]; rat plasma QC, freeze thaw cycles, 2 ng/ml, n = 6): 92.5%
Remain, freeze thaw cycles ([1]; rat plasma QC, freeze thaw cycles, 100 ng/ml, n = 6): 92.0%
Remain, freeze thaw cycles ([1]; rat plasma QC, freeze thaw cycles, 500 ng/ml, n = 6): 85.3%
Remain, freeze thaw cycles [1, 5]: 95.9%
Remain, room temperature for 24 h ([1]; rat plasma QC, room temperature 24 h, 2 ng/ml, n = 6): 96.5%
Remain, room temperature for 24 h ([1]; rat plasma QC, room temperature 24 h, 100 ng/ml, n = 6): 109%
Remain, room temperature for 24 h ([1]; rat plasma QC, room temperature 24 h, 500 ng/ml, n = 6): 89.3%
Remain, room temperature for 24 h [1, 6]: 94.4%
Remain, −80°C for 1 month ([1]; rat plasma QC, −80°C 1 month, 2 ng/ml, n = 6): 96.3%
Remain, −80°C for 1 month ([1]; rat plasma QC, −80°C 1 month, 100 ng/ml, n = 6): 100%
Remain, −80°C for 1 month ([1]; rat plasma QC, −80°C 1 month, 500 ng/ml, n = 6): 91.4%
Remain, −80°C for 1 month [1, 7]: 99.4%
Remain, working solution ([2]; 2 ng/ml): 92.5%
Remain, working solution ([2]; 100 ng/ml): 98.7%
Remain, working solution ([2]; 500 ng/ml): 108%
Remain, working solution [2, 8]: 101%
MRT [3, 9]: 5.49 ± 0.96 h
MRT inf [3, 10]: 6.14 ± 1.47 h
Tmax [3, 11]: 3.5 ± 1.84 h
half-life [3, 12]: 6.18 ± 3.1 h
AUCs(0–24 h) ([3]; rat plasma, oral lotus leaf extract 2.4 g·kg^−1): 2070 ± 919 ng·h/mL
AUC(0–tn) [3, 14]: 2069 ± 919 ng·h/mL
AUC(0–∞) [3, 14]: 2142 ± 961 ng·h/mL
Cmax [3, 14]: 317.58 ± 175.05 ng/mL
Cmax ([3]; rat plasma, oral lotus leaf extract 2.4 g·kg^−1, n = 10, mean ± SD, listed as nunciferine): 317.6 ± 175.1 ng/mL
Plasma exposure (in words) [3, 13]: abundant plasma exposure

Remain, freeze thaw cycles ([1]; rat, plasma): 81.9%
Remain, freeze thaw cycles ([1]; rat, plasma, 2 ng/ml): 93.3%
Remain, freeze thaw cycles ([1]; rat, plasma, 100 ng/ml): 85.5%
Remain, freeze thaw cycles ([1]; rat, plasma, 500 ng/ml): 87.2%
Remain, −80°C for 1 month ([1]; rat, plasma, 1 month): 99.2%
Remain, −80°C for 1 month ([1]; rat, plasma, 1 month, 2 ng/ml): 99.0%
Remain, −80°C for 1 month ([1]; rat, plasma, 1 month, 100 ng/ml): 93.9%
Remain, −80°C for 1 month ([1]; rat, plasma, 1 month, 500 ng/ml): 90.4%
Remain, autosampler for 24 h ([1]; rat, plasma, 24 h): 85.5%
Remain, room temperature for 24 h ([1]; rat, plasma, 24 h): 89.2%
Remain, autosampler for 24 h ([1]; rat, plasma, 24 h, 2 ng/ml): 88.3%
Remain, room temperature for 24 h ([1]; rat, plasma, 24 h, 2 ng/ml): 106%
Remain, autosampler for 24 h ([1]; rat, plasma, 24 h, 100 ng/ml): 92.6%
Remain, room temperature for 24 h ([1]; rat, plasma, 24 h, 100 ng/ml): 98.9%
Remain, autosampler for 24 h ([1]; rat, plasma, 24 h, 500 ng/ml): 87.5%
Remain, room temperature for 24 h ([1]; rat, plasma, 24 h, 500 ng/ml): 87.1%
Remain, working solution ([2]; 2 ng/ml): 92.9%
Remain, working solution ([2]; 100 ng/ml): 99.9%
Remain, working solution ([2]; 500 ng/ml): 105%
Remain, working solution [2, 8]: 99.3%
AUC [3, 15]: 2030 ± 717 ng·h/mL
AUC(0-inf) [3, 15]: 2100 ± 704 ng·h/mL
Cmax [3, 15]: 210 ± 87 ng/mL
MRT [3, 15]: 7.43 ± 1.18 h
MRT inf [3, 15]: 8.36 ± 1.98 h
Tmax [3, 15]: 4.9 ± 1.37 h
half-life [3, 15]: 4.44 ± 1.88 h
Absorption after orally administrating the lotus leaf extract (in words) ([3]; rat, in vivo, po): slow absorption
Plasma exposure (in words) ([3]; rat, in vivo, po): abundant plasma exposure
AUCs(0–24 h) ([3]; rat, in vivo, po, 2.4 g/kg): 2030 ± 716 ng·h/mL
Compound: COc1cc2c3c(c1OC)C1(C=CC(=O)C=C1)C[C@H]3N(C)CC2 [Pronuciferine, pronuciferine]
